From US20030232986A1, “Inhibitors of caspases” (Vertex Pharmaceuticals Incorporated, priority 1998, published 2003)
Like-named read-outs stand apart in the source and are kept apart here. Where a SMILES comes first, the peptide text is derived from it. [ ]: non-standard residue; d: D form. The star is where a group is joined. Isovaleryl = CC(C)CC(=O)*; 4Abz = Nc1ccc(C(=O)O)cc1; Bz = O=C(c1ccccc1)*

Columns and labels:
Caspase-1 = target: T1, Caspase-1 (Homo sapiens, UniProt P29466); assay: Caspase-1 enzyme inhibition (Ki); assay type: biochemical
T1 sequence (P29466 120-297 limits assumed): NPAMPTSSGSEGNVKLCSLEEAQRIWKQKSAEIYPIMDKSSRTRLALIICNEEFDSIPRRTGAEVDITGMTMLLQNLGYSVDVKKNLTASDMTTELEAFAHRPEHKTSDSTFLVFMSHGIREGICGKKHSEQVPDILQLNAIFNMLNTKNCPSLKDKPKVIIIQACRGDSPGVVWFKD
T1 sequence (P29466 317-404 limits assumed): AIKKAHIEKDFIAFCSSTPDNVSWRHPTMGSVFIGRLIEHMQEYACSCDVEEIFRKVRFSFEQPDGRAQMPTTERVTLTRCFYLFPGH
Procedure, shortened: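 Ki obtained by fitting rate versus inhibitor concentration to the Morrison tight-binding equation for competitive inhibitors, with pNA release read at 405 nm at 37 °C. Substrate Suc-YVAD-pNA (80 μM final) added after 15 min enzyme–inhibitor preincubation in Tris pH 7.5 buffer with DTT and CHAPS.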

[1] = test system: Human Peripheral Blood Mononuclear Cells (PBMC), mature IL-1β; assay: PBMC cell assay: IL-1β assay with human peripheral blood mononuclear cells; assay type: cell-based; settings: LPS-stimulated human PBMC, mature IL-1β in supernatant by ELISA
Procedure, shortened: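 Donor PBMC (suspension at 6×10^6 cells/ml) or adherent-enriched monocytes were stimulated with 5 ng/ml LPS (final) alongside 5–6 compound dilutions bracketing the ICE Ki, at 0.1% DMSO final, for 16–18 hr at 37° C, 5% CO2. Mature IL-1β in supernatants was measured by ELISA; IC50 was calculated relative to LPS-only controls.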

[2] = test system: Human whole blood, IL-1β production; assay: Whole blood assay for IL-1β production; assay type: cell-based; settings: LPS-stimulated whole blood, IL-1β by ELISA
Procedure, shortened: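 LPS-stimulated (5.0 ng/ml final) human whole blood incubated with test compound in saline (or plasma/PBS-5% DMSO for hydrophobic compounds) at 30° C for 16-18 hr. Plasma IL-1β then measured by ELISA at 1:200 dilution, against no-LPS, no-inhibitor and vehicle controls.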

[3] = substrate Suc-YVAD-pNA 80 μM, 37° C., pH 7.5

| SMILES | Ki (Caspase-1; [3]) | IC50 [1] | IC50 [2] | Ki (Caspase-1) |
| --- | --- | --- | --- | --- |
| CC(C)NC(=O)N[C@@H]1C[C@@H](C(=O)N[C@H](C=O)CC(=O)O)N(C(=O)[C@@H](NC(=O)c2nccc3ccccc23)C(C)C)C1 [Example 9c] | < 0.01 µM | < 0.5 µM | < 2.5 µM |  |
| C[C@H](NC(=O)c1ccc(N)c(C(F)(F)F)c1)C(=O)N1CCC[C@H]1C(=O)N[C@H](C=O)CC(=O)O [Example 122l, 3-({1-[2-(4-Amino-3-trifluoromethyl-benzoylamino)-propionyl]-pyrrolidine-2-carbonyl}-amino)-4-oxo-butyric acid] | 0.01 to 1 µM | 0.5 to 1 µM | < 2.5 µM |  |
| CC(C)[C@H](NC(=O)c1ccc(O)cc1)C(=O)N[C@@H](C)C(=O)N[C@H](C=O)CC(=O)O [Example 29l] | 0.01 to 1 µM | 0.5 to 1 µM | < 2.5 µM |  |
| COCC(=O)N1CCN(C(=O)[C@H](C)NC(=O)c2nccc3ccccc23)[C@H](C(=O)N[C@H](C=O)CC(=O)O)C1 [Example 18a] | 0.01 to 1 µM | 0.5 to 1 µM | < 2.5 µM |  |
| CS(=O)(=O)CC(NC(=O)c1cc(Cl)c(O)c(Cl)c1)C(=O)N1CCCC1C(=O)NC(C=O)CC(=O)O (centres unmarked) [Example 20s, 3-({1-[2-(3,5-dichloro-4-hydroxy-benzoylamino)-3-methanesulfonyl-propionyl]-pyrrolidine-2-carbonyl}-amino)-4-oxo-butyric acid] | < 0.01 µM | 1 to 2 µM | < 2.5 µM |  |
| CC(C)NC(=O)N1CCN(C(=O)[C@H](C)NC(=O)c2nccc3ccccc23)[C@H](C(=O)N[C@H](C=O)CC(=O)O)C1 [Example 18e] | < 0.01 µM | 1 to 2 µM | < 2.5 µM |  |
| C[C@H](NC(=O)c1ccc(C(N)=O)cc1)C(=O)N1CCC[C@H]1C(=O)N[C@H](C=O)CC(=O)O [Example 7u] | 0.01 to 1 µM | > 2 µM | 2.5 to 7.5 µM |  |
| C[C@H](NC(=O)c1ccc(N)c(OC(F)(F)F)c1)C(=O)N1CCC[C@H]1C(=O)N[C@H](C=O)CC(=O)O [Example 7y] | 0.01 to 1 µM | > 2 µM | > 7.5 µM |  |
| COc1ccc(C(=O)N[C@H](C(=O)N2C[C@H](NC(C)=O)C[C@H]2C(=O)N[C@H](C=O)CC(=O)O)C(C)C)cc1 [Example 9a] | 0.01 to 1 µM | 0.5 to 1 µM | 2.5 to 7.5 µM |  |
| COc1ccc(C(=O)N[C@H](C(=O)N2C[C@H](NC(=O)NC(C)C)C[C@H]2C(=O)N[C@H](C=O)CC(=O)O)C(C)C)cc1 [Example 9b] | < 0.01 µM | 0.5 to 1 µM | 2.5 to 7.5 µM |  |
| CC(C)[C@H](NC(=O)c1nccc2ccccc12)C(=O)N1CCNCC1C(=O)N[C@H](C=O)CC(=O)O (some centres unmarked) [Example 15b] | < 0.01 µM | 1 to 2 µM | 2.5 to 7.5 µM |  |
| CC(C)(C)[C@H](NC(=O)c1ccc(N)c(Cl)c1)C(=O)N1CCCC1C(=O)N[C@H](C=O)CC(=O)O (some centres unmarked) [Example 73, 3-({-[2-(4-Amino-3-chloro-benzoylamino)-3,3-dimethyl-butyryl]-pyrrolidine-2-carbonyl}-amino)-4-oxo-butyric acid] | < 0.01 µM | 0.5 to 1 µM | < 2.5 µM |  |
| CC(C)[C@H](NC(=O)c1cnc2ccccc2n1)C(=O)N1CCC[C@H]1C(=O)N[C@H](C=O)CC(=O)O [Example 5w] | 0.01 to 1 µM | 0.5 to 1 µM | < 2.5 µM | 0.01 to 1 µM |
| CCC(C)[C@H](NC(=O)c1nccc2ccccc12)C(=O)N1CCC[C@H]1C(=O)N[C@H](C=O)CC(=O)O (some centres unmarked) [Example 20c] | < 0.01 µM | 1 to 2 µM | 2.5 to 7.5 µM |  |
| CC(=O)Nc1ccc(C(=O)N[C@@H](C)C(=O)N2CCC[C@H]2C(=O)N[C@H](C=O)CC(=O)O)cc1 [Example 7e] (Ac-[4Abz]APD-aldehyde) | 0.01 to 1 µM | > 2 µM | > 7.5 µM |  |
| C[C@@H](O)[C@H](NC(=O)c1cc(Cl)c(O)c(Cl)c1)C(=O)N1CCC[C@H]1C(=O)N[C@H](C=O)CC(=O)O [Example 20l] | < 0.01 µM | 0.5 to 1 µM | < 2.5 µM |  |
| COc1cc(CC(=O)N[C@H](C(=O)N2CCC[C@H]2C(=O)N[C@H](C=O)CC(=O)O)C(C)C)ccc1OCc1ccccc1 [Example 5ak] | 0.01 to 1 µM | 0.5 to 1 µM | > 7.5 µM | 0.01 to 1 µM |
| CC(C)[C@H](NC(=O)c1ccccc1)C(=O)N1CCC[C@H]1C(=O)N[C@H](C=O)CC(=O)O [Example 5e] (Bz-Val-Pro-Asp-aldehyde) | 0.01 to 1 µM | 0.5 to 1 µM | < 2.5 µM |  |
| C[C@H](NC(=O)c1ccccc1)C(=O)N1CCC[C@H]1C(=O)N[C@H](C=O)CC(=O)O [Example 7b] (Bz-Ala-Pro-Asp-aldehyde) | 0.01 to 1 µM | 0.5 to 1 µM | < 2.5 µM |  |

| SMILES | Ki (Caspase-1; [3]) | IC50 [1] | IC50 [2] | Ki (Caspase-1) |
| --- | --- | --- | --- | --- |
| Cc1cc(C(=O)N[C@@H](C)C(=O)N[C@@H](C)C(=O)N[C@H](C=O)CC(=O)O)cc(C)c1O [Example 29h] | < 0.01 µM | < 0.5 µM | < 2.5 µM |  |
| COc1ccc(C(=O)N[C@@H](C)C(=O)N2CCC[C@H]2C(=O)N[C@H](C=O)CC(=O)O)cc1OCc1ccccc1 [Example 122i, 3-({1-[2-(3-benzyloxy-4-methoxy-benzoylamino)-propionyl]-pyrrolidine-2-carbonyl}-amino)-4-oxo-butyric acid] | < 0.01 µM | 1 to 2 µM | < 2.5 µM |  |
| Cc1cc(C(=O)N[C@@H](C)C(=O)N2CCC[C@H]2C(=O)N[C@H](C=O)CC(=O)O)cc(Cl)c1N [Example 7w] | < 0.01 µM | 1 to 2 µM | < 2.5 µM |  |
| CC(=O)N1CCN(C(=O)[C@H](C)NC(=O)c2nccc3ccccc23)[C@H](C(=O)N[C@H](C=O)CC(=O)O)C1 [Example 18d] | 0.01 to 1 µM | 0.5 to 1 µM | < 2.5 µM |  |
| CC(C)[C@H](NC(=O)c1ccc2c(c1)C(=O)c1ccccc1-2)C(=O)N1CCC[C@H]1C(=O)N[C@H](C=O)CC(=O)O [Example 5bb] | < 0.01 µM | 0.5 to 1 µM | 2.5 to 7.5 µM |  |
| CC(C)[C@H](NC(=O)c1nccc2ccccc12)C(=O)N1CCCC[C@H]1C(=O)N[C@H](C=O)CC(=O)O [Example 25b] | < 0.01 µM | 0.5 to 1 µM | 2.5 to 7.5 µM |  |
| CC(C)[C@H](NC(=O)c1nccc2ccccc12)C(=O)N1C[C@H](c2ccccc2)C[C@H]1C(=O)N[C@H](C=O)CC(=O)O [Example 26h] | < 0.01 µM | < 0.5 µM | < 2.5 µM |  |
| CC(C)(C)[C@H](NC(=O)c1nccc2ccccc12)C(=O)N1CCC[C@H]1C(=O)N[C@H](C=O)CC(=O)O [Example 20a] | < 0.01 µM | 0.5 to 1 µM | < 2.5 µM |  |
| CC(C)[C@H](NC(=O)c1nccc2ccccc12)C(=O)N1CSC(C)(C)[C@H]1C(=O)N[C@H](C=O)CC(=O)O [Example 28c] | < 0.01 µM | 0.5 to 1 µM | > 7.5 µM |  |
| CC(C)[C@H](NC(=O)Cc1ccccc1OCc1ccccc1)C(=O)N1CCC[C@H]1C(=O)N[C@H](C=O)CC(=O)O [Example 5ab] | 0.01 to 1 µM | 0.5 to 1 µM | 2.5 to 7.5 µM | 0.01 to 1 µM |
| CC(C)[C@H](NC(=O)c1cccc(Oc2ccccc2)c1)C(=O)N1CCC[C@H]1C(=O)N[C@H](C=O)CC(=O)O [Example 5ay] | < 0.01 µM | 0.5 to 1 µM | 2.5 to 7.5 µM |  |
| CC(C)[C@H](NC(=O)c1cnnc2ccccc12)C(=O)N1CCC[C@H]1C(=O)N[C@H](C=O)CC(=O)O [Example 5s] | 0.01 to 1 µM | 0.5 to 1 µM | > 7.5 µM | 0.01 to 1 µM |
| COc1ccc(C(=O)N[C@@H](C)C(=O)N2CCC[C@H]2C(=O)N[C@H](C=O)CC(=O)O)cc1C [Example 7p] | < 0.01 µM | > 2 µM | 2.5 to 7.5 µM |  |
| CC(C)[C@H](NC(=O)c1cc2ccccc2[nH]1)C(=O)N[C@@H](C)C(=O)N[C@H](C=O)CC(=O)O [Example 29i] | < 0.01 µM | < 0.5 µM | < 2.5 µM |  |
| CC(C)[C@H](NC(=O)c1ccc(O)cc1)C(=O)N1CCC[C@H]1C(=O)N[C@H](C=O)CC(=O)O [Example 5f] | 0.01 to 1 µM | 1 to 2 µM | 2.5 to 7.5 µM |  |
| CCCCCCc1ccc(C(=O)N[C@H](C(=O)N2CCC[C@H]2C(=O)N[C@H](C=O)CC(=O)O)C(C)C)cc1 [Example 5z] | < 0.01 µM | 0.5 to 1 µM | > 7.5 µM | < 0.01 µM |
| C[C@H](NC(=O)c1ccc(Cl)c(N)c1)C(=O)N1CCC[C@H]1C(=O)N[C@H](C=O)CC(=O)O [Example 7h] | 0.01 to 1 µM | 0.5 to 1 µM | < 2.5 µM |  |
| COc1cc(C(=O)N[C@@H](C)C(=O)N2CCC[C@H]2C(=O)N[C@H](C=O)CC(=O)O)ccc1N [Example 7l] | 0.01 to 1 µM | 0.5 to 1 µM | < 2.5 µM |  |
| CC(C)CC(=O)Nc1ccc(C(=O)N[C@@H](C)C(=O)N2CCC[C@H]2C(=O)N[C@H](C=O)CC(=O)O)cc1 [Example 7v] ({Isovaleryl-4Abz}-Ala-Pro-Asp-aldehyde) | 0.01 to 1 µM | > 2 µM | < 2.5 µM |  |
